Several values for one entry are separate records, joined by “and”; a condition that tells them apart may be missing. Identical values can stand only once. One block for each compound: values may come before it.
What was measured:
CETP = biological target: T1, CETP (Homo sapiens, UniProt P11597); assay: CETP in vitro assay ([3H]CE-HDL transfer, Amersham kit TRKQ7005; modified protocol in human plasma); type: biochemical; details: multiple values = multiple measurements; for inhibition at 1 µM / % Inhibition @ 1 μM: 1 μM compound
T1 construct: from tissue; host or cells: human plasma from normal volunteers
T1 sequence (P11597 18-493): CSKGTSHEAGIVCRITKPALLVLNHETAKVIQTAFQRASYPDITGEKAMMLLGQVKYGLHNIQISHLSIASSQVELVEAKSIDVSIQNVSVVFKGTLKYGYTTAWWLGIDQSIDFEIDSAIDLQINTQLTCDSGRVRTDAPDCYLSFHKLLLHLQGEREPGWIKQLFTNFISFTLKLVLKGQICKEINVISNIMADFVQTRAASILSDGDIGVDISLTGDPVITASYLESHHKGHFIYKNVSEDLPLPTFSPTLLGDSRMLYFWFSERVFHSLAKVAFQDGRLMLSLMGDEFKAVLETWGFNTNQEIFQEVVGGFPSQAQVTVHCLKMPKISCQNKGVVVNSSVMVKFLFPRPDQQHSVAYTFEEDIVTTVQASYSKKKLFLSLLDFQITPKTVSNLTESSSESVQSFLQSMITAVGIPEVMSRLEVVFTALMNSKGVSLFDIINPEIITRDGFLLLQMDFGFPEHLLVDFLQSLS
Procedure, shortened: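 Normal-volunteer human plasma was incubated ≥4 hr at 37 °C with approx. 25 μg/ml [3H]CE-HDL and compound in DMSO, with a 4 °C blank for non-specific transfer. HDL was separated by Dextralip/MgCl2 precipitation and centrifugation, then supernatant radioactivity counted. IC50 came from % control versus concentration.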

cholesterol-fed hamsters = assay: CETP in vivo assay: lipid parameters in cholesterol-fed hamsters; parameters: species or system hamster; details: plasma, mean ± SEM
Protocol: To determine the in vivo efficacy of a test compound, hamsters are first fed a moderately high cholesterol diet (Research Diets, D5012801) for two weeks before commencing treatment. The animals are orally gavaged with the vehicle (10% solutol, 5% ethanol, 85% D5W) and test compound for 5 days with the last dose being administered 2 hrs before sacrifice. Plasma is obtained and lipid parameters (HDL-C, LDL-C, Total Cholesterol, Triglycerides) are measured.

inhibition at 1 µM (CETP): 91% | IC50 (CETP): 26 nM
SMILES: O[C@@H](CN1c2cccc(-c3cccc(OC(F)(F)F)c3)c2OC[C@@H]1c1cccc(OC(F)(F)C(F)F)c1)C(F)(F)F [Compound 3, 4H-1,4-Benzoxazine-4-ethanol, 2,3-dihydro-3-[3-(1,1,2,2-tetrafluoroethoxy)phenyl]-8-[3-(trifluoromethoxy)phenyl]-α-(trifluoromethyl)-, (3S,αS)—]
HDL (cholesterol-fed hamsters; 3 mg/kg oral gavage 5 days): 136 ± 6 mg/dL | HDL-C/LDL Ratio (cholesterol-fed hamsters; 3 mg/kg oral gavage 5 days): 3.7 ± 0.2 | LDL (cholesterol-fed hamsters; 3 mg/kg oral gavage 5 days): 36 ± 3 mg/dL | Total Cholesterol (cholesterol-fed hamsters; 3 mg/kg oral gavage 5 days): 207 ± 7 mg/dL | Triglycerides (cholesterol-fed hamsters; 3 mg/kg oral gavage 5 days): 278 ± 21 mg/dL | HDL (cholesterol-fed hamsters; 10 mg/kg oral gavage 5 days): 158 ± 10 mg/dL | HDL-C/LDL Ratio (cholesterol-fed hamsters; 10 mg/kg oral gavage 5 days): 5.2 ± 0.4 | LDL (cholesterol-fed hamsters; 10 mg/kg oral gavage 5 days): 30 ± 2 mg/dL | Total Cholesterol (cholesterol-fed hamsters; 10 mg/kg oral gavage 5 days): 217 ± 12 mg/dL | Triglycerides (cholesterol-fed hamsters; 10 mg/kg oral gavage 5 days): 282 ± 16 mg/dL | HDL (cholesterol-fed hamsters; 30 mg/kg oral gavage 5 days): 167 ± 5 mg/dL | HDL-C/LDL Ratio (cholesterol-fed hamsters; 30 mg/kg oral gavage 5 days): 6.2 ± 0.3 | LDL (cholesterol-fed hamsters; 30 mg/kg oral gavage 5 days): 27 ± 2 mg/dL | Total Cholesterol (cholesterol-fed hamsters; 30 mg/kg oral gavage 5 days): 226 ± 5 mg/dL | Triglycerides (cholesterol-fed hamsters; 30 mg/kg oral gavage 5 days): 300 ± 36 mg/dL

% Inhibition @ 1 μM (CETP; 1 µM): 20%
SMILES: Cc1ccsc1C1COc2c(-c3cccc(OC(F)(F)F)c3)cccc2N1CC(O)C(F)(F)F (stereo not drawn) [Compound 85, 1,1,1-Trifluoro-3-[3-(3-methyl-thiophen-2-yl)-8-(3-trifluoromethoxy-phenyl)-2,3-dihydro-benzo[1,4]oxazin-4-yl]-propan-2-ol]

% Inhibition @ 1 μM (CETP; 1 µM): 2%
SMILES: Cc1ccsc1C1COc2c(-c3cccc(OC(F)(F)F)c3)cccc2N1CC(O)C(F)(F)F (stereo not drawn) [Compound 86, 1,1,1-Trifluoro-3-[3-(3-methyl-thiophen-2-yl)-8-(3-trifluoromethoxy-phenyl)-2,3-dihydro-benzo[1,4]oxazin-4-yl]-propan-2-ol]

inhibition at 1 µM (CETP): 8%
SMILES: CCc1ccsc1C1COc2c(-c3cccc(OC(F)(F)F)c3)cccc2N1CC(O)C(F)(F)F (stereo not drawn) [Compound 87, 3-[3-(3-Ethyl-thiophen-2-yl)-8-(3-trifluoromethoxy-phenyl)-2,3-dihydro-benzo[1,4]oxazin-4-yl]-1,1,1-trifluoro-propan-2-ol]

% Inhibition @ 1 μM (CETP; 1 µM): 12%
SMILES: CCc1ccsc1C1COc2c(-c3cccc(OC(F)(F)F)c3)cccc2N1CC(O)C(F)(F)F (stereo not drawn) [Compound 88, 3-[3-(3-Ethyl-thiophen-2-yl)-8-(3-trifluoromethoxy-phenyl)-2,3-dihydro-benzo[1,4]oxazin-4-yl]-1,1,1-trifluoro-propan-2-ol]

inhibition at 1 µM (CETP): 17%
SMILES: OC(CN1c2cccc(-c3cccc(OC(F)(F)F)c3)c2OCC1c1ccco1)C(F)(F)F (stereo not drawn) [Compound 89, 1,1,1-Trifluoro-3-[3-furan-2-yl-8-(3-trifluoromethoxy-phenyl)-2,3-dihydro-benzo[1,4]oxazin-4-yl]-propan-2-ol]

% Inhibition @ 1 μM (CETP): 17%
SMILES: OC(CN1c2cccc(-c3cccc(OC(F)(F)F)c3)c2OCC1c1ccco1)C(F)(F)F (stereo not drawn) [Compound 90, 1,1,1-Trifluoro-3-[3-furan-2-yl-8-(3-trifluoromethoxy-phenyl)-2,3-dihydro-benzo[1,4]oxazin-4-yl]-propan-2-ol]

% Inhibition @ 1 μM (CETP; 1 µM): 6%
SMILES: OC(CN1c2cccc(-c3cccc(OC(F)(F)F)c3)c2OCC1c1ccccc1OC(F)(F)C(F)F)C(F)(F)F (stereo not drawn) [Compound 91, 1,1,1-Trifluoro-3-[3-[2-(1,1,2,2-tetrafluoro-ethoxy)-phenyl]-8-(3-trifluoromethoxy-phenyl)-2,3-dihydro-benzo[1,4]oxazin-4-yl]-propan-2-ol]

% Inhibition @ 1 μM (CETP; 1 µM): 1%
SMILES: OC(CN1c2cccc(-c3cccc(OC(F)(F)F)c3)c2OCC1c1ccccc1OC(F)(F)C(F)F)C(F)(F)F (stereo not drawn) [Compound 92, 1,1,1-Trifluoro-3-[3-[2-(1,1,2,2-tetrafluoro-ethoxy)-phenyl]-8-(3-trifluoromethoxy-phenyl)-2,3-dihydro-benzo[1,4]oxazin-4-yl]-propan-2-ol]

% Inhibition @ 1 μM (CETP; 1 µM): 33%
SMILES: OC(CN1c2cccc(-c3cccc(OC(F)(F)F)c3)c2OCC1c1ccc(OC(F)(F)C(F)F)cc1)C(F)(F)F (stereo not drawn) [Compound 93, 1,1,1-Trifluoro-3-[3-[4-(1,1,2,2-tetrafluoro-ethoxy)-phenyl]-8-(3-trifluoromethoxy-phenyl)-2,3-dihydro-benzo[1,4]oxazin-4-yl]propan-2-ol]

% Inhibition @ 1 μM (CETP; 1 µM): 11%
SMILES: OC(CN1c2cccc(-c3cccc(OC(F)(F)F)c3)c2OCC1c1ccc(OC(F)(F)C(F)F)cc1)C(F)(F)F (stereo not drawn) [Compound 94, 1,1,1-Trifluoro-3-[3-[4-(1,1,2,2-tetrafluoro-ethoxy)-phenyl]-8-(3-trifluoromethoxy-phenyl)-2,3-dihydro-benzo[1,4]oxazin-4-yl]propan-2-ol]

% Inhibition @ 1 μM (CETP; 1 µM): 43%
SMILES: OC(CN1c2cccc(-c3cccc(OC(F)(F)F)c3)c2OCC1c1ccccc1)C(F)(F)F (stereo not drawn) [Compound 95, 1,1,1-Trifluoro-3-[3-phenyl-8-(3-trifluoromethoxy-phenyl)-2,3-dihydro-benzo[1,4]oxazin-4-yl]-propan-2-ol]

% Inhibition @ 1 μM (CETP; 1 µM): 1%
SMILES: OC(CN1c2cccc(-c3cccc(OC(F)(F)F)c3)c2OCC1c1ccccc1)C(F)(F)F (stereo not drawn) [Compound 96, 1,1,1-Trifluoro-3-[3-phenyl-8-(3-trifluoromethoxy-phenyl)-2,3-dihydro-benzo[1,4]oxazin-4-yl]-propan-2-ol]

% Inhibition @ 1 μM (CETP; 1 µM): 38%
SMILES: OC(CN1c2cccc(-c3cccc(OC(F)(F)F)c3)c2OCC1c1ccc(OC(F)(F)F)cc1)C(F)(F)F (stereo not drawn) [Compound 97, 1,1,1-Trifluoro-3-[3-(4-trifluoromethoxy-phenyl)-8-(3-trifluoromethoxy-phenyl)-2,3-dihydro-benzo[1,4]oxazin-4-yl]-propan-2-ol]

% Inhibition @ 1 μM (CETP; 1 µM): 10%
SMILES: OC(CN1c2cccc(-c3cccc(OC(F)(F)F)c3)c2OCC1c1ccc(OC(F)(F)F)cc1)C(F)(F)F (stereo not drawn) [Compound 98, 1,1,1-Trifluoro-3-[3-(4-trifluoromethoxy-phenyl)-8-(3-trifluoromethoxy-phenyl)-2,3-dihydro-benzo[1,4]oxazin-4-yl]-propan-2-ol]

% Inhibition @ 1 μM (CETP; 1 µM): 29%
SMILES: COc1cccc(C2COc3c(-c4cccc(OC(F)(F)F)c4)cccc3N2CC(O)C(F)(F)F)c1 (stereo not drawn) [Compound 99, 1,1,1-Trifluoro-3-[3-(3-methoxy-phenyl)-8-(3-trifluoromethoxy-phenyl)-2,3-dihydro-benzo[1,4]oxazin-4-yl]-propan-2-ol]

% Inhibition @ 1 μM (CETP; 1 µM): 6%
SMILES: COc1cccc(C2COc3c(-c4cccc(OC(F)(F)F)c4)cccc3N2CC(O)C(F)(F)F)c1 (stereo not drawn) [Compound 100, 1,1,1-Trifluoro-3-[3-(3-methoxy-phenyl)-8-(3-trifluoromethoxy-phenyl)-2,3-dihydro-benzo[1,4]oxazin-4-yl]-propan-2-ol]

% Inhibition @ 1 μM (CETP; 1 µM): 61% and 63% | IC50 (CETP): 214 nM
SMILES: OC(CN1c2cccc(-c3cccc(OC(F)(F)F)c3)c2OCC1c1cccc(Cl)c1)C(F)(F)F (stereo not drawn) [Compound 101, 3-[3-(3-Chloro-phenyl)-8-(3-trifluoromethoxy-phenyl)-2,3-dihydro-benzo[1,4]oxazin-4-yl]-1,1,1-trifluoro-propan-2-ol]

% Inhibition @ 1 μM (CETP; 1 µM): 0%
SMILES: OC(CN1c2cccc(-c3cccc(OC(F)(F)F)c3)c2OCC1c1cccc(Cl)c1)C(F)(F)F (stereo not drawn) [Compound 102, 3-[3-(3-Chloro-phenyl)-8-(3-trifluoromethoxy-phenyl)-2,3-dihydro-benzo[1,4]oxazin-4-yl]-1,1,1-trifluoro-propan-2-ol]

% Inhibition @ 1 μM (CETP; 1 µM): 20%
SMILES: OC(CN1c2cccc(-c3cccc(OC(F)(F)F)c3)c2OCC1c1cccs1)C(F)(F)F (stereo not drawn) [Compound 103, 1,1,1-Trifluoro-3-[3-thiophen-2-yl-8-(3-trifluoromethoxy-phenyl)-2,3-dihydro-benzo[1,4]oxazin-4-yl]-propan-2-ol]

% Inhibition @ 1 μM (CETP; 1 µM): 0%
SMILES: OC(CN1c2cccc(-c3cccc(OC(F)(F)F)c3)c2OCC1c1cccs1)C(F)(F)F (stereo not drawn) [Compound 104, 1,1,1-Trifluoro-3-[3-thiophen-2-yl-8-(3-trifluoromethoxy-phenyl)-2,3-dihydro-benzo[1,4]oxazin-4-yl]-propan-2-ol]

% Inhibition @ 1 μM (CETP; 1 µM): 2%
SMILES: OC(CN1c2cccc(-c3cccc(OC(F)(F)F)c3)c2OCC1c1ccoc1)C(F)(F)F (stereo not drawn) [Compound 105, 1,1,1-Trifluoro-3-[3-furan-3-yl-8-(3-trifluoromethoxy-phenyl)-2,3-dihydro-benzo[1,4]oxazin-4-yl]-propan-2-ol]

% Inhibition @ 1 μM (CETP; 1 µM): 0%
SMILES: OC(CN1c2cccc(-c3cccc(OC(F)(F)F)c3)c2OCC1c1ccoc1)C(F)(F)F (stereo not drawn) [Compound 106, 1,1,1-Trifluoro-3-[3-furan-3-yl-8-(3-trifluoromethoxy-phenyl)-2,3-dihydro-benzo[1,4]oxazin-4-yl]-propan-2-ol]

% Inhibition @ 1 μM (CETP; 1 µM): 59% and 87% | IC50 (CETP): 134 nM and 198 nM
SMILES: O[C@@H](CN1c2cccc(-c3cccc(OC(F)(F)F)c3)c2SC[C@@H]1c1cccc(OC(F)(F)C(F)F)c1)C(F)(F)F [Compound 107]

inhibition at 1 µM (CETP): 34% | % Inhibition @ 1 μM (CETP; 1 µM): 39% | IC50 (CETP): > 2920 nM
SMILES: O[C@@H](CN1c2cccc(-c3cccc(OC(F)(F)F)c3)c2SC[C@H]1c1cccc(OC(F)(F)C(F)F)c1)C(F)(F)F [Compound 108]

Source: patent US8012963B2, “3,4-dihydro-2H-benzo[1,4]oxazine and thiazine derivatives as CETP inhibitors” (Janssen Pharmaceutica N.V., priority 2006, dated 2011)
